Holding throughout (assay type): biochemical
Assay [1] addresses T1, recombinant human 17β-HSD2 (Homo sapiens, UniProt P37059).
T1 construct: made in house; host or cells: Sd9 (Sf9) insect cells, baculovirus (Bac to Bac Expression System)
T1 sequence (P37059 1-387): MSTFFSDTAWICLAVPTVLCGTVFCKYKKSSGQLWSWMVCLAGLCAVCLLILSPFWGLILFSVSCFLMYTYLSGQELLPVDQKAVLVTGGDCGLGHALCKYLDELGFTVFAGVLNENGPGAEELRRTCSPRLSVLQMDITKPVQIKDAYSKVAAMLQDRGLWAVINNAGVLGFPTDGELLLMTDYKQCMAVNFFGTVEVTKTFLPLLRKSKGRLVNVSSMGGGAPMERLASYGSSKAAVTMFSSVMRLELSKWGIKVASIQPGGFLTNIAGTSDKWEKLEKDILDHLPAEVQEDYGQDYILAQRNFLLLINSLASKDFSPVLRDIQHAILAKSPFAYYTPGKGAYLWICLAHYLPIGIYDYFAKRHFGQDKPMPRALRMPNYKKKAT
Put plainly: Inhibition of recombinant human 17β-HSD2. Particulars: inhibitor 1 μM; 50 nM estradiol, 1 mM NADH, 30 min RT. A digest of the protocol: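 Sf9 baculovirus-expressed enzyme membrane extract (4 μg/ml) incubated 30 min at RT in 20 mM KH2PO4 pH 8.5 with 50 nM estradiol (³H-tracer) and 1 mM NADH, inhibitor at 1 μM or 0.1 μM, 1% DMSO. TCA-stopped; estradiol-to-estrone conversion by radio-HPLC, % inhibition = 100 − % conversion.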

For assay [2], the target named is T2, recombinant human 17β-HSD1 (Homo sapiens, UniProt P14061).
T2 construct: made in house; host or cells: Sd9 (Sf9) insect cells, baculovirus (Bac to Bac Expression System)
T2 sequence (P14061 1-328): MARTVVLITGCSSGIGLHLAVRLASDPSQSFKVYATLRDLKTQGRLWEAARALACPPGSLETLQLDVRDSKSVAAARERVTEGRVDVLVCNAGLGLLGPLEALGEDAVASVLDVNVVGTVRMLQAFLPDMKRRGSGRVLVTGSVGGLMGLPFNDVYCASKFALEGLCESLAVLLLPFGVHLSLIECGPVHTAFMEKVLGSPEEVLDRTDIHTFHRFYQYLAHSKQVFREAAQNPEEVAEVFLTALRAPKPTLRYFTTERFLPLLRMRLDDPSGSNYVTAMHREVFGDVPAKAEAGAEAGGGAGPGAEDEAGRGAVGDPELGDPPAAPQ
Put plainly: Inhibition of recombinant human 17β-HSD1. Particulars: inhibitor 100 nM; 30 nM estrone, 1 mM NADPH, 30 min RT. The procedure, abridged:
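Microsomes from Sf9 cells expressing human 17β-HSD1 (1 μg/ml) were incubated for 30 min at RT in 20 mM KH2PO4 pH 7.4 with 30 nM ³H-estrone, 1 mM NADPH and inhibitor at 1 μM or 0.1 μM (1% DMSO). Estrone-to-estradiol conversion was measured by radio-HPLC after TCA stop, and % inhibition was taken as 100 − % conversion.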

For assay [3], the system named is HSD1 enzyme that is expressed in rabbit placenta tissue. Put plainly: Inhibition of E1 to E2 conversion in rabbit placenta tissue homogenate. The conditions noted are these: inhibitor 100 nM, 30 nM estrone, 30 min.

As a reminder, the inhibition is the relative decrease from the control value, in per cent.

As for `Cc1ccnc(NC(=O)CC[C@@H]2C/C(=N\O)[C@@]3(C)CCC4c5ccc(Cl)cc5CCC4C23)c1` (stereo partly drawn) [Compound 70, 3-((13S,15R,E)-3-chloro-17-(hydroxyimino)-13-methyl-7,8,9,11,12,13,14,15,16,17-decahydro-6H-cyclopenta[a]phenanthren-15-yl)-N-(4-methylpyridin-2-yl)propanamide], the inhibition at 1 µM in assay [1] was 4%. Further, in assay [2], the inhibition at 0.1 µM turned out to be 81%. Also, in assay [3], the “Rabbit placenta inhibition % @100 nM” value is reported as −7%.
For `C[C@]12CCC3c4ccc(Cl)cc4CCC3C1[C@H](CCC(=O)Nc1ccc(C#N)cn1)C/C2=N\O` (stereo partly drawn) [Compound 72, 3-((13S,15R,E)-3-chloro-17-(hydroxyimino)-13-methyl-7,8,9,11,12,13,14,15,16,17-decahydro-6H-cyclopenta[a]phenanthren-15-yl)-N-(5-cyanopyridin-2-yl)propanamide], in that order: 7%, 52% and 26%.
For `C[C@]12CCC3c4ccc(Cl)cc4CCC3C1[C@H](CCC(=O)Nc1cnccn1)C/C2=N\O` (stereo partly drawn) [Compound 74, 3-((13S,15R,E)-3-chloro-17-(hydroxyimino)-13-methyl-7,8,9,11,12,13,14,15,16,17-decahydro-6H-cyclopenta[a]phenanthren-15-yl)-N-(pyrazin-2-yl)propanamide], in that order: 2%, 27% and 13%.
For `Cc1ccc(NC(=O)CC[C@@H]2C/C(=N\O)[C@@]3(C)CCC4c5ccc(Cl)cc5CCC4C23)nn1` (stereo partly drawn) [Compound 76, 3-((13S,15R,E)-3-chloro-17-(hydroxyimino)-13-methyl-7,8,9,11,12,13,14,15,16,17-decahydro-6H-cyclopenta[a]phenanthren-15-yl)-N-(6-methylpyridazin-3-yl)propanamide], in that order: 4%, 33% and 56%.
As to `C[C@]12CCC3c4ccc(Cl)cc4CCC3C1[C@H](CCC(=O)Nc1ccc(N3CCOCC3)cn1)C/C2=N\O` (stereo partly drawn) [Compound 78, 3-((13S,15R,E)-3-chloro-17-(hydroxyimino)-13-methyl-7,8,9,11,12,13,14,15,16,17-decahydro-6H-cyclopenta[a]phenanthren-15-yl)-N-(5-morpholinopyridin-2-yl)propanamide], the inhibition at 1 µM in assay [1] turned out to be 1%. In addition, the inhibition at 0.1 µM in assay [2] came out at 76%. In addition, the “Rabbit placenta inhibition % @100 nM” value in assay [3] is 37%.
For `CN(C(=O)CC[C@@H]1C/C(=N\O)[C@@]2(C)CCC3c4ccccc4CCC3C12)C1CCOCC1` (stereo partly drawn) [Compound 80, 3-((13S,15R,E)-17-(hydroxyimino)-13-methyl-7,8,9,11,12,13,14,15,16,17-decahydro-6H-cyclopenta[a]phenanthren-15-yl)-N-methyl-N-(tetrahydro-2H-pyran-4-yl)propanamide], the inhibition at 1 µM in assay [1] amounted to 4%. The inhibition at 0.1 µM in assay [2] was found to be 32%. In addition, in assay [3], the “Rabbit placenta inhibition % @100 nM” value was 3%.
Take `C[C@]12CCC3c4ccccc4CCC3C1[C@H](CCC(=O)Nc1cccnn1)C/C2=N\O` (stereo partly drawn) [Compound 82]: the inhibition at 1 µM in assay [1] was 7%. In addition, the inhibition at 0.1 µM in assay [2] was 17%. Moreover, the “Rabbit placenta inhibition % @100 nM” value in assay [3] was determined as 18%.
For `CN1CCN(c2ccc(NC(=O)CC[C@@H]3C/C(=N\O)[C@@]4(C)CCC5c6ccccc6CCC5C34)nc2)CC1` (stereo partly drawn) [Compound 86, 3-((13S,15R,E)-17-(hydroxyimino)-13-methyl-7,8,9,11,12,13,14,15,16,17-decahydro-6H-cyclopenta[a]phenanthren-15-yl)-N-(5-(4-methylpiperazin-1-yl)pyridin-2-yl)propanamide], the inhibition at 1 µM in assay [1] was 6%. For the same molecule, the inhibition at 0.1 µM in assay [2] was 61%. Besides, the “Rabbit placenta inhibition % @100 nM” value in assay [3] amounted to 51%.
As to `Cc1ccnc(NC(=O)CC[C@@H]2C/C(=N\O)[C@@]3(C)CCC4c5ccccc5CCC4C23)c1` (stereo partly drawn) [Compound 88, 3-((13S,15R,E)-17-(hydroxyimino)-13-methyl-7,8,9,11,12,13,14,15,16,17-decahydro-6H-cyclopenta[a]phenanthren-15-yl)-N-(4-methylpyridin-2-yl)propanamide], the inhibition at 1 µM in assay [1] is -2%. Besides, in assay [2], the inhibition at 0.1 µM is 65%. Besides, in assay [3], the “Rabbit placenta inhibition % @100 nM” value is 10%.
Regarding `CN(C)C(=O)c1ccc(NC(=O)CC[C@@H]2C/C(=N\O)[C@@]3(C)CCC4c5ccccc5CCC4C23)nc1` (stereo partly drawn) [Compound 92, 6-(3-((13S,15R,E)-17-(hydroxyimino)-13-methyl-7,8,9,11,12,13,14,15,16,17-decahydro-6H-cyclopenta[a]phenanthren-15-yl)propanamido)-N,N-dimethylnicotinamide], the inhibition at 1 µM in assay [1] was 9%. The inhibition at 0.1 µM in assay [2] was found to be 37%. In addition, the “Rabbit placenta inhibition % @100 nM” value in assay [3] was determined as 15%.
The like results for `C[C@]12CCC3c4ccccc4CCC3C1[C@H](CCC(=O)Nc1cc3c([nH]c1=O)CCCC3)C/C2=N\O` (stereo partly drawn) [Compound 94, 3-((13S,15R,E)-17-(hydroxyimino)-13-methyl-7,8,9,11,12,13,14,15,16,17-decahydro-6H-cyclopenta[a]phenanthren-15-yl)-N-(2-oxo-1,2,5,6,7,8-hexahydroquinolin-3-yl)propanamide] were, in that order, 0%, 63% and 8%.
The like results for `C[C@]12CCC3c4ccccc4CCC3C1[C@H](CCC(=O)Nc1ccc(C#N)cn1)C/C2=N\O` (stereo partly drawn) [Compound 100, N-(5-cyanopyridin-2-yl)-3-((13S,15R,E)-17-(hydroxyimino)-13-methyl-7,8,9,11,12,13,14,15,16,17-decahydro-6H-cyclopenta[a]phenanthren-15-yl)propanamide] were, in that order, -2%, 51% and 12%.
For `C[C@]12CCC3c4ccccc4CCC3C1[C@H](CCC(=O)Nc1ncccc1O)C/C2=N\O` (stereo partly drawn) [Compound 102, 3-((13S,15R,E)-17-(hydroxyimino)-13-methyl-7,8,9,11,12,13,14,15,16,17-decahydro-6H-cyclopenta[a]phenanthren-15-yl)-N-(3-hydroxypyridin-2-yl)propanamide], in that order: 20%, 57% and 1%.
On to `C[C@]12CCC3c4ccccc4CCC3C1[C@H](CCC(=O)Nc1ccccn1)C/C2=N\O` (stereo partly drawn) [Compound 104, 3-((13S,15R,E)-17-(hydroxyimino)-13-methyl-7,8,9,11,12,13,14,15,16,17-decahydro-6H-cyclopenta[a]phenanthren-15-yl)-N-(pyridin-2-yl)propanamide], for which, in assay [1], the inhibition at 1 µM was -13%. In assay [2], the inhibition at 0.1 µM came out at 64%. Besides, the “Rabbit placenta inhibition % @100 nM” value in assay [3] is 9%.
`CN1CCN(c2ccc(NC(=O)CC[C@@H]3C/C(=N\O)[C@@]4(C)CCC5c6cccc(F)c6CCC5C34)nc2)CC1` (stereo partly drawn) [Compound 116, 3-((13S,15R,E)-4-fluoro-17-(hydroxyimino)-13-methyl-7,8,9,11,12,13,14,15,16,17-decahydro-6H-cyclopenta[a]phenanthren-15-yl)-N-(5-(4-methylpiperazin-1-yl)pyridin-2-yl)propanamide]: the inhibition at 1 µM in assay [1] came to 26%. The inhibition at 0.1 µM in assay [2] came out at 85%. The “Rabbit placenta inhibition % @100 nM” value in assay [3] was determined as 76%.
For `CNC(=O)CC[C@@H]1C/C(=N\O)[C@@]2(C)CCC3c4cccc(F)c4CCC3C12` (stereo partly drawn) [Compound 118, 3-((13S,15R,E)-4-fluoro-17-(hydroxyimino)-13-methyl-7,8,9,11,12,13,14,15,16,17-decahydro-6H-cyclopenta[a]phenanthren-15-yl)-N-methylpropanamide], in that order: 2%, 43% and −1%.
The like results for `CN(C)C(=O)CC[C@@H]1C/C(=N\O)[C@@]2(C)CCC3c4cccc(F)c4CCC3C12` (stereo partly drawn) [Compound 120, 3-((13S,15R,E)-4-fluoro-17-(hydroxyimino)-13-methyl-7,8,9,11,12,13,14,15,16,17-decahydro-6H-cyclopenta[a]phenanthren-15-yl)-N,N-dimethylpropanamide] were, in that order, 2%, 57% and 9%.

(Values after US20240309043A1, “THERAPEUTICALLY ACTIVE STEROIDAL DERIVATIVES” (Organon R&D Finland Ltd., priority 2017, published 2024).)
